Measurements as given in patent publication US20080221086A1, “Novel Inhibitors of Glutaminyl Cyclase” (PROBIODRUG AG, priority 2006, published 2008).

biological target: hQC (Homo sapiens, UniProt Q16769); assay: Fluorometric assay of glutaminyl cyclase (QC) inhibition, H-Gln-βNA or H-Gln-AMC substrate; format: biochemical; details: read-out: IC50
Outline: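 Fluorometric coupled assays at 30° C in Tris/HCl pH 8.0 with EDTA and pyroglutamyl aminopeptidase used either 0.2 mM H-Gln-βNA (320/410 nm) or H-Gln-AMC (380/460 nm), started by QC. Screening used 4 mM inhibitor at substrate 1 KM. Ki came from fitting progress curves to competitive inhibition.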

Sequence of hQC (Q16769 29-361): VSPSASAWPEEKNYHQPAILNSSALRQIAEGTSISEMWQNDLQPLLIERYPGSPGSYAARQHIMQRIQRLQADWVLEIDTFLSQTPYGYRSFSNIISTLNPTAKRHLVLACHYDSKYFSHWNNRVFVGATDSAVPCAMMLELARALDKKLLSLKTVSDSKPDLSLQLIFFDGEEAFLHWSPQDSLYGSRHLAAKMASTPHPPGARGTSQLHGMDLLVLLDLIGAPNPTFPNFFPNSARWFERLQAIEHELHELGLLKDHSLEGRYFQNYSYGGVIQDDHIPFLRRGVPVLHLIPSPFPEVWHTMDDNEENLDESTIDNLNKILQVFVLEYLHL

Row | IC50 [µM] | Compound
1 | 7.6 | CC1=CC(C)C(C2/C(=N/C(C)C(C)(C)C)NC(=S)N2c2ccc3nc[nH]c3c2)CC1 (stereo not drawn) [Compound 165, 1-(3H-Benzoimidazol-5-yl)-5-(2,4-dimethyl-cyclohex-3-enyl)-4-1,2,2-trimethyl-propylimino-imidazolidine-2-thione]
2 | 2.2 | O=C1N/C(=N/CCN2CCOCC2)C(c2ccc3ccccc3c2)N1c1ccc2[nH]cnc2c1 (stereo not drawn) [Compound 233, 1-(1H-Benzoimidazol-5-yl)-4-2-morpholin-4-yl-ethylimino-5-naphthalen-2-yl-imidazolidin-2-one]
3 | 4.9 | N#Cc1cccc(/N=C2\NC(=S)N(c3ccc4[nH]cnc4c3)C2c2ccc3c(c2)OCCO3)c1 (stereo not drawn) [Compound 126, 3-(1-(1H-benzo[d]imidazol-5-yl)-5-(2,3-dihydrobenzo[b][1,4]dioxin-6-yl)-2-thioxoimidazolidin-4-ylideneamino)benzo-nitrile]
4 | 4 | Cc1ccc(C2/C(=N\Cc3ccc4[nH]ccc4c3)NC(=S)N2c2ccc3[nH]cnc3c2)cc1 (stereo not drawn) [Compound 145, 1-(1H-Benzoimidazol-5-yl)-4-1H-indol-5-ylmethylimino-5-p-tolyl-imidazolidine-2-thione]
5 | 1.3 | CSc1ccc(C2C(=NCn3nnc4ccccc43)NC(=O)N2c2ccc3[nH]cnc3c2)cc1 (stereo not drawn) [Compound 181, 1-(1H-Benzoimidazol-5-yl)-4-benzotriazol-1-ylmethylimino-5-(4-methylsulfanyl-phenyl)-imidazolidin-2-one]
6 | 7.6 | O=C1N/C(=N\C(c2ccccc2)c2ccccc2)C(c2cccc(F)c2F)N1CCCn1ccnc1 (stereo not drawn) [Compound 83, 4-Benzhydrylimino-5-(2,3-difluoro-phenyl)-1-(3-imidazol-1-yl-propyl)-imidazolidin-2-one]
7 | 6.7 | O=C1N/C(=N/Cn2nnc3ccccc32)CN1c1ccc2[nH]cnc2c1 [Compound 325, 1-(1H-Benzoimidazol-5-yl)-4-benzotriazol-1-ylmethylimino-imidazolidin-2-one]
8 | 8.5 | O=C1NC(=Nc2ccc(Oc3ccccc3)cc2)C(CO)N1CCCn1ccnc1 (stereo not drawn) [Compound 102, 5-Hydroxymethyl-1-(3-imidazol-1-yl-propyl)-4-4-phenoxy-phenylimino-imidazolidin-2-one]
9 | 8.5 | S=C1N/C(=N\c2ccccc2Br)C(c2ccc3ccccc3c2)N1c1ccc2nc[nH]c2c1 (stereo not drawn) [Compound 264, 1-(3H-Benzoimidazol-5-yl)-4-2-bromo-phenylimino-5-naphthalen-2-yl-imidazolidine-2-thione]
10 | 3.1 | O=C1N/C(=N/CCc2c[nH]c3ccccc23)C(c2cccc(F)c2)N1CCCn1ccnc1 (stereo not drawn) [Compound 62, 5-(3-Fluoro-phenyl)-1-(3-imidazol-1-yl-propyl)-4-2-(1H-indol-3-yl)-ethylimino-imidazolidin-2-one]
11 | 7.6 | O=C1N/C(=N/Cc2ccc(Cl)cc2)C(c2ccc(Cl)c(F)c2)N1CCCn1ccnc1 (stereo not drawn) [Compound 20, 4-4-Chloro-benzylimino-5-(4-chloro-3-fluoro-phenyl)-1-(3-imidazol-1-yl-propyl)-imidazolidin-2-one]
12 | 7.6 | CCC1/C(=N\CC(=O)N2CCc3ccccc3C2)NC(=O)N1CCCn1ccnc1 (stereo not drawn) [Compound 75, 4-2-(3,4-Dihydro-1H-isoquinolin-2-yl)-2-oxo-ethylimino-5-ethyl-1-(3-imidazol-1-yl-propyl)-imidazolidin-2-one]
13 | 4 | S=C1NC(=Nc2ccccc2Br)C(c2ccc3[nH]ccc3c2)N1c1ccc2nc[nH]c2c1 (stereo not drawn) [Compound 291, 1-(3H-Benzoimidazol-5-yl)-4-2-bromo-phenylimino-5-(1H-indol-5-yl)-imidazolidine-2-thione]
14 | 0.4 | O=C1N/C(=N\C2CCCCC2O)C(c2ccc3[nH]ccc3c2)N1c1ccc2[nH]cnc2c1 (stereo not drawn) [Compound 122, 1-(1H-Benzoimidazol-5-yl)-4-2-hydroxy-cyclohexylimino-5-(1H-indol-5-yl)-imidazolidin-2-one]
15 | 4 | O=C(C/N=C1\NC(=O)N(CCCn2ccnc2)C1c1ccccc1Cl)N1CCc2ccccc2C1 (stereo not drawn) [Compound 71, 5-(2-Chloro-phenyl)-4-2-(3,4-dihydro-1H-isoquinolin-2-yl)-2-oxo-ethylimino-1-(3-imidazol-1-yl-propyl)-imidazolidin-2-one]
16 | 9.4 | O=C1N/C(=N\C2CCCCCC2)C(C2CCOC2)N1c1ccc2[nH]cnc2c1 (stereo not drawn) [Compound 205, 1-(1H-Benzoimidazol-5-yl)-4-cycloheptylimino-5-(tetrahydro-furan-3-yl)-imidazolidin-2-one]
17 | 9.4 | O=C1N/C(=N\C(c2ccccc2)c2ccccc2)C(C2CCC=CO2)N1CCCn1ccnc1 (stereo not drawn) [Compound 82, 4-Benzhydrylimino-5-(3,4-dihydro-2H-pyran-2-yl)-1-(3-imidazol-1-yl-propyl)-imidazolidin-2-one]
18 | 7.6 | COC(=O)C(C)N=C1NC(=S)N(c2ccc3[nH]cnc3c2)C1c1ccccc1 (stereo not drawn) [Compound 304, Methyl 2-(1-(1H-benzo[d]imidazol-5-yl)-5-phenyl-2-thioxoimidazolidin-4-ylideneamino)propanoate]

Row | IC50 [µM] | Compound
19 | 0.004 | O=C1N/C(=N\Cc2ccccc2)C(c2cccc(Br)c2)N1c1ccc2nc[nH]c2c1 (stereo not drawn) [Compound 177, 1-(1H-benzo[d]imidazol-6-yl)-4-(benzylimino)-5-(3-bromophenyl)imidazolidin-2-one]
20 | 1.3 | C/N=C1/NC(=O)N(c2ccc3[nH]cnc3c2)C1c1ccc2c(c1)OCO2 (stereo not drawn) [Compound 195, 5-Benzo1,3dioxol-5-yl-1-(1H-benzoimidazol-5-yl)-4-methylimino-imidazolidin-2-one]
21 | 5.8 | O=C1N/C(=N/CCc2cccs2)C(c2ccc(Cl)c(F)c2)N1CCCn1ccnc1 (stereo not drawn) [Compound 42, 5-(4-Chloro-3-fluoro-phenyl)-1-(3-imidazol-1-yl-propyl)-4-2-thiophen-2-yl-ethylimino-imidazolidin-2-one]
22 | 6.7 | CCc1ccccc1C1/C(=N/C2CCCc3ccccc32)NC(=S)N1c1ccc2[nH]cnc2c1 (stereo not drawn) [Compound 136, 1-(1H-Benzoimidazol-5-yl)-5-(2-ethyl-phenyl)-4-1,2,3,4-tetrahydro-naphthalen-1-yliminoimidazolidine-2-thione]
23 | 0.4 | O=C1N/C(=N/C2CC2)C(c2ccc(Br)cc2)N1c1ccc2nc[nH]c2c1 (stereo not drawn) [Compound 310, 1-(3H-Benzoimidazol-5-yl)-5-(4-bromo-phenyl)-4-cyclopropylimino-imidazolidin-2-one]
24 | 4 | O=C(CN=C1NC(=O)N(c2ccc3nc[nH]c3c2)C1c1cc(Br)cc(Br)c1)N1CCSCC1 (stereo not drawn) [Compound 179, 1-(3H-Benzoimidazol-5-yl)-5-(3,5-dibromo-phenyl)-4-2-oxo-2-thiomorpholin-4-yl-ethylimino-imidazolidin-2-one]
25 | 7.6 | CCCCC1/C(=N\C)NC(=O)N1CCCn1ccnc1 (stereo not drawn) [Compound 16, 5-Butyl-1-(3-imidazol-1-yl-propyl)-4-methylimino-imidazolidin-2-one]
26 | 5.8 | O=C1N/C(=N/CCc2c[nH]c3ccccc23)C(C2CCC=CO2)N1CCCn1ccnc1 (stereo not drawn) [Compound 51, 5-(3,4-Dihydro-2H-pyran-2-yl)-1-(3-imidazol-1-yl-propyl)-4-2-(1H-indol-3-yl)-ethylimino-imidazolidin-2-one]
27 | 3.1 | O=C(C/N=C1/NC(=O)N(CCCn2ccnc2)C1c1ccc(Cl)c(F)c1)N1CCc2ccccc2C1 (stereo not drawn) [Compound 70, 5-(4-Chloro-3-fluoro-phenyl)-4-2-(3,4-dihydro-1H-isoquinolin-2-yl)-2-oxo-ethylimino-1-(3-imidazol-1-yl-propyl)-imidazolidin-2-one]
28 | 0.4 | O=C1CCCN1CCC/N=C1/NC(=O)N(c2ccc3[nH]cnc3c2)C1c1ccc(Cl)c(F)c1 (stereo not drawn) [Compound 323, 1-(1H-Benzoimidazol-5-yl)-5-(4-chloro-3-fluoro-phenyl)-4-3-(2-oxo-pyrrolidin-1-yl)-propylimino-imidazolidin-2-one]
29 | 9.4 | O=C1N/C(=N/Cc2ccccc2)C(c2ccc[nH]2)N1CCCn1ccnc1 (stereo not drawn) [Compound 93, 4-Benzylimino-1-(3-imidazol-1-yl-propyl)-5-(1H-pyrrol-2-yl)-imidazolidin-2-one]
30 | 0.004 | O=C1CCCN1CCC/N=C1/NC(=O)N(c2ccc3[nH]cnc3c2)C1c1cccc(Br)c1 (stereo not drawn) [Compound 241, 1-(1H-Benzoimidazol-5-yl)-5-(3-bromo-phenyl)-4-3-(2-oxo-pyrrolidin-1-yl)-propylimino-imidazolidin-2-one]
31 | 8.5 | CCCCC1/C(=N/Cc2ccc(Cl)cc2)NC(=O)N1CCCn1ccnc1 (stereo not drawn) [Compound 22, 5-Butyl-4-4-chloro-benzylimino-1-(3-imidazol-1-yl-propyl)-imidazolidin-2-one]
32 | 4 | O=C1N/C(=N\C2CCc3ccccc32)CN1c1ccc2[nH]cnc2c1 (stereo not drawn) [Compound 198, 1-(1H-Benzoimidazol-5-yl)-4-indan-1-ylimino-imidazolidin-2-one]
33 | 9.4 | COc1cc(C/N=C2\NC(=O)N(CCCn3ccnc3)C2c2cccc(F)c2F)cc(OC)c1OC (stereo not drawn) [Compound 25, 5-(2,3-Difluoro-phenyl)-1-(3-imidazol-1-yl-propyl)-4-3,4,5-trimethoxy-benzylimino-imidazolidin-2-one]
34 | 1.3 | O=C1N/C(=N/Cc2cccnc2)C(c2cc(F)cc(F)c2)N1c1ccc2[nH]cnc2c1 (stereo not drawn) [Compound 227, 1-(1H-Benzoimidazol-5-yl)-5-(3,5-difluoro-phenyl)-4-pyridin-3-ylmethylimino-imidazolidin-2-one]
35 | 0.4 | C/N=C1/NC(=O)N(c2ccc3[nH]cnc3c2)C1c1c[nH]c2ccc(Cl)cc12 (stereo not drawn) [Compound 223, 1-(1H-Benzoimidazol-5-yl)-5-(5-chloro-1H-indol-3-yl)-4-methylimino-imidazolidin-2-one]
36 | 4 | Cc1ccc2occ(C3/C(=N/C4CCCCC4O)NC(=O)N3c3ccc4[nH]cnc4c3)c(=O)c2c1 (stereo not drawn) [Compound 127, 1-(1H-Benzoimidazol-5-yl)-4-2-hydroxy-cyclohexylimino-5-(6-methyl-4-oxo-4H-chromen-3-yl)-imidazolidin-2-one]
